In patent US8889591B2, “Herbicidal compositions comprising 4-amino-3-chloro-5-fluoro-6-(4-chloro-2-fluoro-3-methoxyphenyl)pyridine-2-carboxylic acid or a derivative thereof and bromobutide, daimuron, oxaziclomefone or pyributicarb” (Dow Agrosciences LLC, priority 2012, dated 2014):

Key:
[1] = system: FIMMI; experiment: In-water applied greenhouse weed control, transplanted paddy rice system; type: in vivo, Fimbristylis miliacea (L.) Vahl; conditions: in-water application
Procedure: (§1) Weed seeds or nutlets of the desired test plant species were planted in puddled soil (mud) prepared by mixing a shredded, non-sterilized mineral soil (50.5 percent silt, 25.5 percent clay, and 24 percent sand, with a pH of about 7.6 and an organic matter content of about 2.9 percent) and water at a 1:1 volumetric ratio. The prepared mud was dispensed in 365 mL aliquots into 16-ounce (oz.) non-perforated plastic pots with a surface area of 86.59 square centimeters (cm^2) leaving a headspace of 3 centimeters (cm) in each pot. Mud was allowed to dry overnight prior to planting or transplanting. Rice seeds were planted in Sun Gro MetroMix® 306 planting mixture, which typically has a pH of 6.0 to 6.8 and an organic matter content of about 30 percent, in plastic plug trays. Seedlings at the second or third leaf stage of growth were transplanted into 840 mL of mud contained in 32-oz. non-perforated plastic pots with a surface area of 86.59 cm^2 4 days prior to herbicide application. The paddy was created by filling the headspace of the pots with 2.5 to 3 cm of water. When required to ensure good germination and healthy plants, a fungicide treatment and/or other chemical or physical treatment was applied. The plants were grown for 4-22 days in a greenhouse with an approximate 14 h photoperiod which was maintained at about 29° C. during the day and 26° C. during the night. Nutrients were added as Osmocote® (19:6:12, N:P:K+ minor nutrients) at 2 g per 16-oz. pot and 4 g per 32-oz. pot. Water was added on a regular basis to maintain the paddy flood, and supplemental lighting was provided with overhead metal halide 1000-Watt lamps as necessary. The plants were employed for testing when they reached the first through fourth true leaf stage.
(§2) Treatments consisted of the acid or esters of 4-amino-3-chloro-5-fluoro-6-(4-chloro-2-fluoro-3-methoxy-phenyl)pyridine-2-carboxylic acid (compound A) each formulated as an SC and various herbicidal components alone and in combination. Forms of compound A were applied on an acid equivalent basis.
(§3) Other herbicidal components were applied on an active ingredient basis and included daimuron formulated as an EC, bromobutide (technical grade material), and oxaziclomefone (technical grade material).
(§4) Treatment requirements for each compound or herbicidal component were calculated based upon the rates being tested, the concentration of active ingredient or acid equivalent in the formulation, an application volume of 2 mL per component per pot, and an application area of 86.59 cm^2 per pot.
(§5) For formulated compounds, a measured amount was placed in an individual 100 or 200 mL glass vial and was dissolved in a volume of 1.25% (v/v) Agri-Dex® crop oil concentrate to obtain application solutions.
(§6) For technical grade compounds, a weighed amount was placed in an individual 100 to 200 mL glass vial and was dissolved in a volume of acetone to obtain concentrated stock solutions. […] The concentrated stock solutions obtained were diluted with an equivalent volume of an aqueous mixture containing 2.5% (v/v) crop oil concentrate so that the final application solutions contained 1.25% (v/v) crop oil concentrate.
(§7) Applications were made by injecting, with a pipetter, appropriate amounts of the application solutions, individually and sequentially, into the aqueous layer of the paddy. Control plants were treated in the same manner with the solvent blank. Applications were made so that all treated plant material received the same concentrations of acetone and crop oil concentrate.
(§8) The treated plants and control plants were placed in a greenhouse as described above and water was added as needed to maintain a paddy flood. After approximately 3 weeks the condition of the test plants as compared with that of the untreated plants was determined visually and scored on a scale of 0 to 100 percent where 0 corresponds to no injury or growth inhibition and 100 corresponds to complete kill. […]

[2] = system: CYPRO; experiment: as above; type: in vivo, Cyperus rotundus L.; conditions: in-water application
Procedure: as §1, §2, §3, §4, §5, §6, §7, §8

[3] = system: BRAPP; experiment: Postemergence foliar-applied greenhouse weed control, direct-seeded rice system; type: in vivo; conditions: Compound A Acid 4.38 gae/ha alone
Excerpt: (§9) Seeds or nutlets of the desired test plant species were planted in a soil matrix prepared by mixing a loam or sandy loam soil (e.g., 28.6 percent silt, 18.8 percent clay, and 52.6 percent sand, with a pH of about 5.8 and an organic matter content of about 1.8 percent) and calcareous grit in an 80 to 20 ratio. The soil matrix was contained in plastic pots with a volume of 1 quart and a surface area of 83.6 square centimeters (cm^2). When required to ensure good germination and healthy plants, a fungicide treatment and/or other chemical or physical treatment was applied. The plants were grown for 8-22 days in a greenhouse with an approximate 14 h photoperiod which was maintained at about 29° C. during the day and 26° C. during the night. Nutrients (Peters Excel® 15-5-15 5-Ca 2-Mg and iron chelate) were applied in the irrigation solution as needed and water was added on a regular basis. Supplemental lighting was provided with overhead metal halide 1000-Watt lamps as necessary. The plants were employed for testing when they reached the first through fourth true leaf stage.
as §2, with “(Compound A),” for “(compound A)”, “SC (suspension concentrate),” for “SC”
(§10) Other herbicidal components were applied on an active ingredient basis and included diamuron formulated as an EC (emulsifiable concentrate) and oxaziclomefone (technical grade material).
(§11) Treatment requirements were calculated based upon the rates being tested, the concentration of active ingredient or acid equivalent in the formulation, and a 12 mL application volume at a rate of 187 L/ha.
(§12) For treatments comprised of formulated compounds, measured amounts of compounds were placed individually in 25 mL glass vials and diluted in a volume of 1.25% (v/v) Agri-Dex® crop oil concentrated to obtain 12× stock solutions. […] Application solutions were prepared by adding an appropriate amount of each stock solution (e.g., 1 mL) and diluted to the appropriate final concentrations with the addition of 10 mL of an aqueous mixture of 1.25% (v/v) crop oil concentrate so that the final spray solutions contained 1.25+/−0.05% (v/v) crop oil concentrate.
(§13) For treatments comprised of technical compounds, weighed amounts can be placed individually in 25 mL glass vials and dissolved in a volume of 97:3 v/v acetone/DMSO to obtain 12× stock solutions. […] Application solutions can be prepared by adding an appropriate amount of each stock solution (e.g., 1 mL) and diluted to the appropriate final concentrations with the addition of 10 mL of an aqueous mixture of 1.5% (v/v) crop oil concentrate so that the final spray solutions contain 1.25% (v/v) crop oil concentrate. When technical materials are used, the concentrated stock solutions can be added to the spray solutions so that the final acetone and DMSO concentrations of the application solutions are 16.2% and 0.5%, respectively.
(§14) For treatments comprised of formulated and technical compounds, weighed amounts of the technical materials were placed individually in 25 mL glass vials and dissolved in a volume of 97:3 v/v acetone/DMSO to obtain 12× stock solutions, and measured amounts of the formulated compounds were placed individually in 25 mL glass vials and diluted in a volume of 1.5% (v/v) crop oil concentrate or water to obtain 12× stock solutions. […] Application solutions were prepared by adding an appropriate amount of each stock solution (e.g., 1 mL) and diluted to the appropriate final concentrations with the addition of an appropriate amount of an aqueous mixture of 1.5% (v/v) crop oil concentrate so that the final spray solutions contained 1.25% (v/v) crop oil concentrate. […]

[4] = system: ECHCG; experiment: as above; type: in vivo, Echinochloa crusgalli (L.) Beauv.
Excerpt: as §9
as §2, with “(Compound A),” for “(compound A)”, “SC (suspension concentrate),” for “SC”
as §10, §11, §12, §13, §14

[5] = system: ECHCO; experiment: as above; type: in vivo, Echinochloa colona (L.) Link
Excerpt: as §9
as §2, with “(Compound A),” for “(compound A)”, “SC (suspension concentrate),” for “SC”
as §10, §11, §12, §13, §14

[6] = system: LEFCH; experiment: as above; type: in vivo, Leptochloa chinensis (L.) Nees
Excerpt: as §9
as §2, with “(Compound A),” for “(compound A)”, “SC (suspension concentrate),” for “SC”
as §10, §11, §12, §13, §14

[7] = system: IPOHE; experiment: as above; type: in vivo, Ipomoea hederacea Jacq.
Excerpt: as §9
as §2, with “(Compound A),” for “(compound A)”, “SC (suspension concentrate),” for “SC”
as §10, §11, §12, §13, §14

[8] = system: ECHOR; experiment: In-water applied greenhouse weed control, transplanted paddy rice system; type: in vivo, Echinochloa oryzoides (Ard.) Fritsch; conditions: in-water application
Procedure: as §1, §2, §3, §4, §5, §6, §7, §8

[9] = Compound A Acid 4.38 gae/ha alone
[10] = Compound A Acid 8.75 gae/ha alone
[11] = Compound A Acid 17.5 gae/ha alone
[12] = Compound A Acid 35 gae/ha alone

| SMILES | Visual Weed Control (%) - 19 DAA FIMMI Obs ([1]; Bromobutide 225 gai/ha alone) [%] | Visual Weed Control (%) - 19 DAA FIMMI Obs ([1]; Bromobutide 450 gai/ha alone) [%] | Visual Weed Control (%) - 19 DAA CYPRO Obs ([2]; Bromobutide 225 gai/ha alone) [%] | Visual Weed Control (%) - 19 DAA CYPRO Obs ([2]; Bromobutide 450 gai/ha alone) [%] | Visual Weed Control (%) - 20 DAA BRAPP Obs [3] [%] | Visual Weed Control (%) - 20 DAA ECHCG Obs [4, 9] [%] | Visual Weed Control (%) - 20 DAA ECHCG Obs [4, 10] [%] | Visual Weed Control (%) - 20 DAA ECHCO Obs [5, 9] [%] | Visual Weed Control (%) - 20 DAA ECHCO Obs [5, 10] [%] | Visual Weed Control (%) - 20 DAA ECHCO Obs [5, 11] [%] | Visual Weed Control (%) - 20 DAA LEFCH Obs [6, 9] [%] | Visual Weed Control (%) - 20 DAA LEFCH Obs [6, 10] [%] | Visual Weed Control (%) - 20 DAA LEFCH Obs [6, 11] [%] | Visual Weed Control (%) - 20 DAA IPOHE Obs [7, 9] [%] | Visual Weed Control (%) - 20 DAA IPOHE Obs [7, 10] [%] | Visual Weed Control (%) - 20 DAA ECHOR Obs [8, 10] [%] | Visual Weed Control (%) - 20 DAA ECHOR Obs [8, 11] [%] | Visual Weed Control (%) - 20 DAA ECHOR Obs [8, 12] [%] | Visual Weed Control (%) - 21 DAA CYPRO Obs [2, 11] [%] | Visual Weed Control (%) - 21 DAA CYPRO Obs [2, 12] [%] |
| --- | --- | --- | --- | --- | --- | --- | --- | --- | --- | --- | --- | --- | --- | --- | --- | --- | --- | --- | --- | --- |
| CC(C)(NC(=O)C(Br)C(C)(C)C)c1ccccc1 (centres unmarked) [Bromobutide, 2-bromo-3,3-dimethyl-N-(1-methyl-1-phenylethyl)butanamide] | 0 | 15 | 0 | 0 | – | – | – | – | – | – | – | – | – | – | – | – | – | – | – | – |
| COc1c(Cl)ccc(-c2nc(C(=O)O)c(Cl)c(N)c2F)c1F [Compound A Acid, 4-amino-3-chloro-6-(4-chloro-2-fluoro-3-methoxyphenyl)-5-fluoropyridine-2-carboxylic acid] | – | – | – | – | 10 | 25 | 80 | 50 | 75 | 90 | 0 | 20 | 50 | 10 | 35 | 20 | 30 | 40 | 40 | 70 |
